We go through 1 compound from patent US20150252048A1, “SUBSTITUTED N-(3-PYRIMIDIN-4-YL)PHENYL)ACRYLAMIDE ANALOGS AS TYROSINE RECEPTOR KINASE BTK INHIBITORS” (UNIVERSITY OF UTAH RESEARCH FOUNDATION, priority 2012, published 2015).

Where two headings read alike, the source gives them in different places.

In series [1] the target is BTK (Homo sapiens, UniProt Q06187). Briefly: BTK kinase assay: time resolved-FRET (HTRF) assay. Format: biochemical. More on the design: recombinant full-length human BTK kinase with a (His)6 tag; (His)6; purchased Invitrogen Corporation, Carlsbad, Calif. To be noted: 10 nM BTK, 60 μM ATP, 1 μM substrate. Here is the method:
Activity of compounds was routinely confirmed using a secondary assay as described herein. The secondary assay was a time resolved-FRET kinase assay. Test compound are diluted to desired concentrations in kinase reaction buffer and briefly incubated with BTK kinase (as described above; Invitrogen). The reaction is initiated by the addition of ATP and enzyme substrate, HTRF® KinEASE™-TK Substrate-biotin (Cisbio US, Bedford, Mass.). The composition of the reaction (10 μl) was: 1% v/v DMSO, 10 nM BTK, 60 μM ATP, and 1 μM substrate. After incubation at room temperature for 60 min, the enzyme reaction is stopped by EDTA-containing buffer, which also contains europium-labeled (Eu^3+-Cryptate) anti-phosphotyrosine antibody (Cisbio) and Streptavidin-XL665 (Cisbio). The europium-labeled antibody generates a time-resolved FRET signal with the Stepavidin-XL665, which binds to the biotinylated TK substrate through the streptavidin conjugate when the substrate is phosphorylated. After one hour incubation at room temperature, fluoresence was measured with excitation of 320 nm and dual emission of 615 and 665 nm on an EnVision microplate reader. Signal is expressed in terms of a TR-FRET ratio (665:615).
IC50 values are determined using GraphPad Prism 5 software. The data were entered as an X-Y plot into the software as percent inhibition for each concentration of the drug. The concentration values of the drug were log transformed and the nonlinear regression was carried out using the “sigmoidal dose-response (variable slope)” option within the GraphPad software to model the data and calculate IC50 values. The IC50 values reported are the concentration of drug at which 50% inhibition was reached.
Activity (IC50) was determined in the BTK assays describe herein below, i.e. either the ADP generation assay and/or the time-resolved FRET assay, and the data are shown in Table III. The compound number corresponds to the compound numbers used in Table I. In the table below, “ADP Assay” refers to the assay which measures production of ADP resulting from use of ATP by the kinase; and “HTRF Assay” refers to the time resolved-FRET kinase assay described in the examples. Multiple values in a given column indicate the results of more than one assay for the given compound. Representative data of the type used to determine the IC50 values for the ADP assay in Table III are shown in FIG. 8 for compounds 3, 4, and 5.

A short description of series [2]: Pharmacokinetics in rat. Format: in vivo, male Sprague Dawley rats. As to the method:
The pharmacokinetic behavior of a representative disclosed compound, compound 3 (N-(3-(6-((3-morpholinophenyl)amino)-1H-pyrazolo[3,4-d]pyrimidin-4-yl)phenyl)acrylamide), which corresponds to compound 3 in Table I, was also evaluated in rat. A study was conducted using three male Sprague Dawley rats in each group as shown below:
The solution formulations were prepared as follows: (A) intravenous route (“i.v.”): a weighed quantity of 3 (10.45 mg) was transferred into a 10 mL clean glass vial. To this 0.231 mL of ethanol (4.5%) was added, vortexed and sonicated. To this 1.028 mL of propylene glycol (20%) was added, vortexed and sonicated. 1.543 mL of PEG400 (30%) was added, vortexed and sonicated. Finally 2.340 mL of water (45.5%) was added gradually, vortexed and sonicated to make a solution of 2 mg/mL concentration. The final solution was filtered using syringe filter (0.22 μm).; and (B) a weighed quantity of SC-1344 (27.43 mg) was transferred into a 10 mL clean glass vial. To this 0.304 mL of ethanol (4.5%) was added, vortexed and sonicated. To this 1.350 mL of propylene glycol (20%) was added, vortexed and sonicated. 2.024 mL of PEG400 (30%) was added, vortexed and sonicated. Finally 3.070 mL of water (45.5%) was added gradually, vortexed and sonicated to make a solution of 4 mg/mL concentration. The final solution was filtered using syringe filter (0.22 μm).
Bioanalysis was performed using fit-for-purpose LC-MS/MS method for the quantification of 3 in rat plasma samples. The calibration curve (CC) for the method consisted of nine non-zero calibration standards along with a double blank and zero standard samples. Study samples were analyzed along with two sets of quality control samples (6 QC samples; low, medium and high QC samples in triplicate). Briefly, the LC-MS/MS method used the following parameters: a) gradient mobile phase (Pump A: 0.1% Formic acid in water; Pump B: 100% methanol); b) XBridge C8, 50×4.6 mm, 3.5μ (Waters) column; c) 10 μL injection volume; d) 1.00 mL/min flow rate; e) 3.50 min run time; f) 10° C. sample cooler temperature; and g) 40° C. column oven temperature. The sample calibration curve was 1.02-1023 ng/mL, with an internal standard (telmisartan) at 0.2 μg/mL. Briefly, biological samples were prepared as follows: 50 μL of sample was mixed with 150 μL of internal standard, then mixture was vortexed for 5 min at 800 rpm, followed by centrifugation at 4000 rpm for 5 min; 150 μL of the sample supernatant was transferred into a separate tube and diluted with 75 μL of methanol: water (1:1), followed by injection into LC/MS/MS.
Plasma pharmacokinetic parameters were calculated using the non-compartmental analysis tool of Phoenix software (Version 6.3) and were determined from individual animals in each group. The area under the plasma concentration-time curve (AUC0-t and AUCinf), elimination half-life (T1/2), clearance (CL), volume of distribution (Vss) and Mean residence time (MRT) were calculated from intravenous group. The peak plasma concentration (Cmax), time to achieve peak plasma concentration (Tmax), AUC0-t and AUCinf, and absolute oral bioavailability (F) were calculated from the oral group.
The mean plasma concentration-time profiles are shown in FIGS. 10 and 11, i.e. the mean concentration values of the individual values obtained from each rat in the study group at the indicated time points.

Chain of BTK (Q06187 whole entry): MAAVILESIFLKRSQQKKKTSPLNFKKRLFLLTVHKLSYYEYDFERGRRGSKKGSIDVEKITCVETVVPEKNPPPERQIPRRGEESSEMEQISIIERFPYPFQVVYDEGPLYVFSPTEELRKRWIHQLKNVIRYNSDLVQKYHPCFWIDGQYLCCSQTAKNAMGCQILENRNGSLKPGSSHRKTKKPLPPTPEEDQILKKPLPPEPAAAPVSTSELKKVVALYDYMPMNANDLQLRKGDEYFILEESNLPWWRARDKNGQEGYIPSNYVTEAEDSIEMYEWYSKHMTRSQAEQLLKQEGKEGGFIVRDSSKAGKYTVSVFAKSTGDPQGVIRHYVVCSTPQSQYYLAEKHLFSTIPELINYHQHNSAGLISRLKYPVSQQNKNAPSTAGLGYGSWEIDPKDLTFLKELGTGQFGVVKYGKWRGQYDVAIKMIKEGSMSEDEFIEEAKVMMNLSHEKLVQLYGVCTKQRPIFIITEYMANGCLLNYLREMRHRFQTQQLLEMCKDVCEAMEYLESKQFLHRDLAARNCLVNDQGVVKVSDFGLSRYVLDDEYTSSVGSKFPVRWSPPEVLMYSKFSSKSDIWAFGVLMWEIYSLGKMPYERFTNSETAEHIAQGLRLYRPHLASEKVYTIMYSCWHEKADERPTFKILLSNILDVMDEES

`C=CC(=O)Nc1cccc(-c2nc(Nc3cccc(N4CCOCC4)c3)nc3[nH]ncc23)c1` [Compound 3, N-(3-(6-((3-morpholinophenyl)amino)-1H-pyrazolo[3,4-d]pyrimidin-4-yl)phenyl)acrylamide]: in series [1], the IC50 (commonly the concentration at which inhibition is half-maximal) came to 8 nM. Besides, the AUC(0-t) amounted to 1063 ng·h/mL in series [2] (IV 5 mg/kg, solution, 5 mg/kg) and 104 ng·h/mL in series [2] (male, Sprague-Dawley, plasma, PO 20 mg/kg, solution, read-out: AUC0-t). The same compound gave a CL in series [2] (IV 5 mg/kg, solution, 5 mg/kg) of 79.7 mL/min/kg. Further, the T1/2 in series [2] (IV 5 mg/kg, solution, 5 mg/kg) was 2.71 h. Besides, the Vss (as a rule, a proportionality between amount in the body and measured concentration, not a real space) in series [2] (IV 5 mg/kg, solution, 5 mg/kg) is 7.91 L/kg. Further, the “F (absolute oral bioavailability)” value in series [2] (PO 20 mg/kg vs IV 5 mg/kg, AUC0-t and nominal doses used) was 2.44%. The Cmax in series [2] (PO 20 mg/kg, solution, 20 mg/kg) was 23.1 ng/mL; in series [2] (male, Sprague Dawley, plasma, IV 5 mg/kg, solution, read-out: Cmax (back-extrapolated concentration)), 1840 ng/mL. Further, the AUC(0-inf) (as a rule, the area under the concentration-time curve extrapolated to infinity) in series [2] (male, Sprague Dawley, plasma, IV 5 mg/kg, solution) came out at 1070 ng·h/mL; in series [2] (male, Sprague Dawley, plasma, PO 20 mg/kg, solution, one animal data) it was 254 ng·h/mL. In addition, in series [2] (male, Sprague Dawley, plasma, PO 20 mg/kg, solution, read-out: Tmax (median)), the Tmax (in general, the time at which the peak concentration occurs) was determined as 2 h.
